Values of other authors in patent publication US8383579B2, “Method for customized dispensing of variable dose drug combination products for individualizing of therapies” (Glaxosmithkline, LLC, priority 2004, dated 2013).

What was measured:
[1] = Lanoxin + coreg UID
[2] = Coreg + cimetidine

| Compound | peak/trough conc [1] | AUC steady state [2] [%] | Cmax [2] |
| --- | --- | --- | --- |
| C[C@H]1O[C@@H](O[C@H]2[C@@H](O)C[C@H](O[C@H]3[C@@H](O)C[C@H](O[C@H]4CC[C@@]5(C)[C@H](CC[C@@H]6[C@@H]5C[C@@H](O)[C@]5(C)[C@@H](C7=CC(=O)OC7)CC[C@]65O)C4)O[C@@H]3C)O[C@@H]2C)C[C@H](O)[C@@H]1O [Lanoxin, digoxin] | 14-16% |  |  |
| COc1ccccc1OCCNCC(O)COc1cccc2[nH]c3ccccc3c12 (stereo not drawn) [Coreg] |  | 30 | no change |
